The nature of one data set: PAMPA experiment. The data set is classed as in vitro ADME. The following applies: 1.8% lecithin membrane, drug test solution 10 μM, 37° C., 16 hours. How it is done: Reagents: lecithin, n-dodecane, HEPES, dimethyl sulfoxide (DMSO), acetonitrile
Instrument and equipment: Multiscreen 96-well plate (up Merck Millipore), Multiscreen 96-well plate (down Merck Millipore), electronic analytical balance, constant temperature incubator, high performance liquid chromatography-mass spectrometry (LC-MS)
Method for operation: Preparation of PAMPA artificial membrane: about 18 mg of lecithin was weighed accurately, and placed into a 1.5 mL EP tube. 1 mL of n-dodecane was added. The mixture was dissolved by ultrasonication, and then thoroughly mixed to obtain a 1.8% lecithin membrane.
The upper layer of the PAMPA model was the plate lid, the middle layer was the 96-well filter plate (donor plate), and the lower layer was the accepter plate. 5 μL of the above 1.8% lecithin membrane was added to the filter membrane of the donor plate, and then 150 μL of the drug test solution (10 μM) was added. 300 μL of HEPES solution was added to each well of the accepter plate (completed within 10 minutes). The donor plate was slowly placed onto the accepter plate and incubated at 37° C. for 16 hours.
LC-MS detection: 100 μL of the positive control and the test compound was weighed respectively, to which 100 μL of acetonitrile-DMSO solution [acetonitrile-DMSO (4:1)] was added. The mixture was mixed well, and detected by LC-MS at OH and 16H. The corresponding molecular ion peak was extracted and the peak area was obtained; After the PAMPA model was incubated at 37° C. for 16 h, 100 μL of the test solution in the donor plate and the accepter plate was weighed respectively, to which 100 μL of acetonitrile-DMSO solution [acetonitrile-DMSO (4:1)] was added. The mixture was mixed well, and detected by LC-MS. The corresponding molecular ion peak was extracted, the peak area was obtained, and the concentration was calculated.

The next data set addresses T1, SHP2 (Homo sapiens, UniProt Q06124).
T1 construct: endogenous in cells; host or cells: SUM159 triple-negative breast cancer cells
T1 sequence (Q06124 1-593): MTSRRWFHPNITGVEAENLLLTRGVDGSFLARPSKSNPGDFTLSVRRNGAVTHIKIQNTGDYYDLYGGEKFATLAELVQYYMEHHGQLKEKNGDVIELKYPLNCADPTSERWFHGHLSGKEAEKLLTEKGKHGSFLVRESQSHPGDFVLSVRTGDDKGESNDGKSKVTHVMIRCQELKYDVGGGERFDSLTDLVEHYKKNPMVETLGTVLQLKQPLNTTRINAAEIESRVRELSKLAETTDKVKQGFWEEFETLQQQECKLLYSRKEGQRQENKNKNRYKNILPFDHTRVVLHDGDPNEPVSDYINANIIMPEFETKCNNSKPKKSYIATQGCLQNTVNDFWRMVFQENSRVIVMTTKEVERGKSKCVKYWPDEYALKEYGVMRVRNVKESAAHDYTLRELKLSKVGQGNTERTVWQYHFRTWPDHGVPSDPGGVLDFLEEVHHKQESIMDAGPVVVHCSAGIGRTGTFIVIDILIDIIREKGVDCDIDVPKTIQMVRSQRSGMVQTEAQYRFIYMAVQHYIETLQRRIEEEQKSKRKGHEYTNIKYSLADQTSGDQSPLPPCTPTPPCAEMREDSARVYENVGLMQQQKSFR
As to the kind of experiment: Western blot, degradation of SHP2 in vitro. Type of data set: cell-based. The following applies: degradation of SHP2 in SUM159 cells, 24 hours with compound. On the procedure: 1. The Biological Activity of Compounds was Determined by Western Blot Method Using the Following Method:
Reagents: Complete 1640 medium was purchased from Gibco. Fetal bovine serum was purchased from ThermoFisher. Trypsin was produced by ThermoFisher. SHP-2 antibody was produced by CST.
(§1) Cell line: SUM159 triple-negative breast cancer cell line was established by Rovera.
Method for assay: Cells growth in the logarithmic phase were collected and suspended in a 1640 medium containing 10% fetal bovine serum, which was then gently pipetted into a single-cell suspension. Viable cells were counted under microscope. 9 mL of the cell suspension was seeded and cultured in a 10 cm culture dish at a final concentration of 2×10^5 cells/mL. After cells were pre-cultured for 24 hours at 37° C. and 5% CO2, different concentrations of solutions of the compounds of the present disclosure in DMSO were added (the final concentration of DMSO was no more than 0.5%), and the negative control group was added with the same volume of DMSO alone. After cultured for another 24 hours, all cells were collected and washed with PBS. The cells were lysed with RIPA lysis buffer, and the lysates were collected into a 1.7 mL centrifuge tube. The proteins were fully denatured after heating in the metal bath at 95° C. for 10 minutes. After loading the samples onto the gel for Western blotting, electrophoresis was performed at a constant voltage of 100V until the band of bromophenol blue reached the terminal point. The proteins were transferred onto a cellulose acetate membrane using the wet transfer method at a constant current of 300-500 mA for 45 minutes, and the proteins were blocked with 5% BSA at room temperature for 1-2 hours. The proteins were incubated with primary antibody diluted 1:500 to 1:8000 at room temperature for 2 hours, and then washed three times. Subsequently, the proteins were incubated with secondary antibody at room temperature for 1 hour. The detection of proteins was performed using ultrasensitive ECL luminescent liquid such as Enlight, and signals were captured using an automatic X-ray film developing machine. For the test results, see the in vitro Western Blot experiment of Example 1 and the in vitro Western Blot experiment of Example 3.
The compounds of the present disclosure have good in vitro anti-solid tumor and anti-blood tumor activities and have low toxicity to normal cells.
A general note: Immunoblotting shows a protein as a band on a membrane.

Data set [1] has as its system SUM159 triple-negative breast cancer cell line. As to the kind of experiment: CCK8 method, cell viability. The following applies: SUM159 cells, 72 hours, CCK8 absorbance. The data set is classed as cell-based. On the procedure: 2. The Biological Activity of Compounds was Determined by CCK8 Method Using the Following Method:
Reagents: Complete RPMI 1640 medium was purchased from Gibco. Fetal bovine serum was purchased from ThermoFisher. Trypsin was produced by ThermoFisher. SHP-2 antibody was produced by CST. CCK8 was produced by abcam.
as §1
Method for assay: Cells growth in the logarithmic phase were collected and suspended in a RPMI 1640 medium containing 10% fetal bovine serum, which was then gently pipetted into a single-cell suspension. Viable cells were counted under microscope. The cells were seeded into a 96-well plate at a density of 3-6*10^3 cells per well and cultured in an incubator for 24 hours. Test compounds were diluted in multiples, and then the cell culture supernatant was added. The cells were cultured for another 72 hours, and 10 μL of CCK8 detection solution was added to each well. After incubating for 1-4 hours, the absorbance was measured using a microplate reader.
On the technique in general: Tetrazolium assays rely on reduction of a dye to a coloured formazan, in cell work by metabolically active cells.

Bounds are passed on as bounds.

This is an account of results in US20260217730A1, “PROTEOLYSIS TARGETING CHIMERA COMPOUND” (BEIJING TIDE PHARMACEUTICAL CO., LTD., priority 2023, published 2026).

Usually DC50 stands for the midpoint of the concentration-degradation curve. One may read the IC50 as the concentration at which inhibition is half-maximal.

With `O=C1CC(=O)OCN2C(=O)CCC(C2=O)N2Cc3cc(ccc3C2=O)OCCOC/C=C\COCCOc2ccc(c(Cl)c2)-c2cc(=O)c3cc(I)c(cc3o2)CO1` (centres unmarked) [Example 1], the “PAMPA (−Log Pe)” value in “PAMPA experiment” was 6.71. The 50% degradation concentration (DC50) at SHP2 amounted to 210 nM. The IC50 in data set [1] came out at 28.8 nM.
`O=C1CCC2C(=O)N1COP(=O)(O)OCc1cc3oc(cc(=O)c3cc1I)-c1ccc(cc1Cl)OCCOC/C=C\COCCOc1ccc3c(c1)C(=O)N2C3=O` (centres unmarked) [Example 2]: in the data set “PAMPA experiment”, the “PAMPA (−Log Pe)” value worked out at 6.0. Besides, it took 1000 nM to reach half-maximal inhibition in data set [1] (IC50).
On to `O=C1OCc2cc3oc(cc(=O)c3cc2I)-c2ccc(cc2Cl)OCCOC/C=C\COCCOc2ccc3c(c2)CN(C3=O)C2CCC(=O)N(COC1=O)C2=O` (centres unmarked) [Example 3], for which the “PAMPA (−Log Pe)” value in “PAMPA experiment” was 5.94. In addition, at SHP2, the 50% degradation concentration (DC50) amounted to 37 nM. The molecule also registered a half-maximal inhibitory concentration (IC50) in data set [1] of 7.43 nM.
`O=C1CC(=O)OCN2C(=O)CCC(C2=O)N2Cc3cc(ccc3C2=O)OCCCC/C=C\CCCCOc2ccc(c(Cl)c2)-c2cc(=O)c3ccc(cc3o2)CO1` (centres unmarked) [Example 4]: the “PAMPA (−Log Pe)” value in the data set “PAMPA experiment” is listed as 6.11. The molecule also displayed a 50% inhibitory concentration (IC50) in data set [1] of 718 nM.
With `O=C1OCc2cc3oc(cc(=O)c3cc2I)-c2ccc(cc2Cl)OCCOC/C=C\COCCOc2ccc3c(c2)CN(C3=O)C2CCC(=O)N(COC(=O)c3cccc1c3)C2=O` (centres unmarked) [Example 5], the “PAMPA (−Log Pe)” value in the data set “PAMPA experiment” is 5.78. Further, at SHP2, the DC50 was 500 nM. The molecule further gave an IC50 in data set [1] of 200 nM.
Taken in the same sequence, the figures for `O=C1OCc2ccc3c(=O)cc(oc3c2)-c2ccc(cc2Cl)OCCCC/C=C/CCCCOc2ccc3c(c2)CN(C3=O)C2CCC(=O)N(COC(=O)c3cccc1c3)C2=O` (centres unmarked) [Example 6] were 8.55, 10 nM and more than 5000 nM.
Regarding `O=C1CC(=O)OCN2C(=O)CCC(C2=O)N2Cc3cc(ccc3C2=O)OCCOC/C=C\COCCOc2ccc(c(Cl)c2)-c2cc(=O)c3ccc(cc3o2)CO1` (centres unmarked) [Example 7], the DC50 at SHP2 amounted to 188 nM. In addition, in data set [1], the IC50 is 23.1 nM.
In the case of `N[C@H]1CCC(=O)OCc2ccc3c(=O)cc(oc3c2)-c2ccc(cc2Cl)OCCOC/C=C/COCCOc2ccc3c(c2)CN(C3=O)C2CCC(=O)N(COC1=O)C2=O` (some centres unmarked) [Example 8], in the data set “PAMPA experiment”, the “PAMPA (−Log Pe)” value is 4.68. The IC50 in data set [1] was found to be 5.33 nM.
On to `CN1CC(=O)OCc2ccc3c(=O)cc(oc3c2)-c2ccc(cc2Cl)OCCOC/C=C/COCCOc2ccc3c(c2)CN(C3=O)C2CCC(=O)N(COC(=O)C1)C2=O` (centres unmarked) [Example 9], for which the “PAMPA (−Log Pe)” value in the data set “PAMPA experiment” was determined as 5.52. Further, on SHP2, the half-maximal degradation concentration (DC50) was 4.21 nM. In data set [1], this molecule came in with an IC50 of 2.39 nM.
`CN1CC(=O)OCc2ccc3c(=O)cc(oc3c2)-c2ccc(cc2Cl)OCCOCCCCOCCOc2ccc3c(c2)CN(C3=O)C2CCC(=O)N(COC(=O)C1)C2=O` (centres unmarked) [Example 10]: in the data set “PAMPA experiment”, the “PAMPA (−Log Pe)” value is recorded as 5.56. In addition, the 50% degradation concentration (DC50) on SHP2 was found to be 5.94 nM. In data set [1], this molecule yielded an IC50 of 3.5 nM.
